Laboratory results reported in the NIST ThermoML archive (doi:10.1021/je101178u).
“And” between values parts separate entries of the source, which are not always exact repeats. Identical values can stand only once.

Details: 307.15 K, Fluid (supercritical or subcritical phases); for viscosity: vibrating wire; for mass density: Buoyancy - hydrostatic balance with magnetic suspension - one sinker

CC [ethane]
Details | mass density | viscosity
5348.1 kPa | – | 0.03109 mPa·s
5348.3 kPa | 282.116 kg/m3 | 0.03109 mPa·s
5348.5 kPa | 282.128 kg/m3 | 0.0311 mPa·s
5348.6 kPa | 282.136 kg/m3 | 0.0311 mPa·s
5367.9 kPa | 283.622 kg/m3 | 0.0314 mPa·s
5368.5 kPa | 283.666 kg/m3 | 0.0314 mPa·s
5369.1 kPa | 283.708 kg/m3 | 0.03144 mPa·s
5369.4 kPa | 283.73 kg/m3 | 0.03141 mPa·s
5648.1 kPa | 299.179 kg/m3 | 0.03389 mPa·s
5648.3 kPa | 299.189 kg/m3 | 0.03388 mPa·s
5648.7 kPa | 299.204 kg/m3 | 0.03392 mPa·s
5648.8 kPa | 299.208 kg/m3 | 0.03391 mPa·s
5673.9 kPa | 300.263 kg/m3 and 300.265 kg/m3 | 0.0342 mPa·s and 0.03418 mPa·s
5674 kPa | 300.27 kg/m3 | 0.03416 mPa·s
5674.2 kPa | 300.276 kg/m3 | 0.03417 mPa·s
6326.2 kPa | 319.788 kg/m3 | 0.03773 mPa·s
6328.2 kPa | 319.833 kg/m3 | 0.03774 mPa·s
6328.5 kPa | 319.84 kg/m3 | 0.03772 mPa·s
6328.9 kPa | 319.85 kg/m3 | 0.03776 mPa·s
6343.9 kPa | 320.187 kg/m3 | 0.03781 mPa·s
6344.7 kPa | 320.206 kg/m3 | 0.03783 mPa·s
6346 kPa | 320.235 kg/m3 | 0.03784 mPa·s
6347.2 kPa | 320.26 kg/m3 | 0.03783 mPa·s
7598.2 kPa | 341.1 kg/m3 | 0.04226 mPa·s
7602.2 kPa | 341.152 kg/m3 | 0.0423 mPa·s
7603 kPa | 341.162 kg/m3 | 0.0423 mPa·s
7700.1 kPa | 342.393 kg/m3 | 0.04256 mPa·s
7700.8 kPa | 342.402 kg/m3 | 0.04257 mPa·s
7701.7 kPa | 342.413 kg/m3 | 0.04257 mPa·s
9627.4 kPa | 361.481 kg/m3 | 0.04726 mPa·s
9628.1 kPa | 361.486 kg/m3 | 0.04728 mPa·s
9703.1 kPa | 362.086 kg/m3 | 0.04743 mPa·s
9703.6 kPa | 362.09 kg/m3 | 0.04742 mPa·s
9705 kPa | 362.101 kg/m3 | –
